Assay: xn = mol fraction of the nth substance listed
Settings: 318.15 K, 101.3 kPa, Liquid, Alternating current cell with electrodes

CC1COC(=O)O1 (centres undefined) [4-methyl-1,3-dioxolan-2-one] + CCCC[n+]1ccn(C)c1.O=S(=O)([N-]S(=O)(=O)C(F)(F)F)C(F)(F)F
Settings | electrical conductivity [S/m]
x2 = 0.05 | 1.08
x2 = 0.1 | 1.51
x2 = 0.2001 | 1.75
x2 = 0.2999 | 1.68
x2 = 0.4 | 1.53
x2 = 0.5002 | 1.36
x2 = 0.5998 | 1.224
x2 = 0.7 | 1.114
x2 = 0.8 | 1.009
x2 = 0.8999 | 0.924

CCCC[n+]1ccn(C)c1.O=S(=O)([N-]S(=O)(=O)C(F)(F)F)C(F)(F)F + O=C1CCCO1
Settings | electrical conductivity [S/m]
x1 = 1 | 0.877

O=C1OCCO1 [ethylene carbonate] + CCCC[n+]1ccn(C)c1.O=S(=O)([N-]S(=O)(=O)C(F)(F)F)C(F)(F)F
Settings | electrical conductivity [S/m]
x2 = 0.05 | 1.36
x2 = 0.1 | 1.87
x2 = 0.2001 | 2.06
x2 = 0.2999 | 1.908
x2 = 0.4 | 1.7
x2 = 0.5002 | 1.504
x2 = 0.5998 | 1.313
x2 = 0.7 | 1.17
x2 = 0.8 | 1.07
x2 = 0.8999 | 0.965

CCCC[n+]1ccn(C)c1.O=S(=O)([N-]S(=O)(=O)C(F)(F)F)C(F)(F)F + O=C1OCCO1
Settings | electrical conductivity [S/m]
x1 = 1 | 0.877

O=C1CCCO1 [γ-butyrolactone] + CCCC[n+]1ccn(C)c1.O=S(=O)([N-]S(=O)(=O)C(F)(F)F)C(F)(F)F
Settings | electrical conductivity [S/m]
x2 = 0.05 | 1.43
x2 = 0.1 | 1.95
x2 = 0.2001 | 2.13
x2 = 0.2999 | 1.96
x2 = 0.4 | 1.72
x2 = 0.5002 | 1.506
x2 = 0.5998 | 1.307
x2 = 0.7 | 1.16
x2 = 0.8 | 1.03
x2 = 0.8999 | 0.937

CCCC[n+]1ccn(C)c1.O=S(=O)([N-]S(=O)(=O)C(F)(F)F)C(F)(F)F + COC(=O)OC
Settings | electrical conductivity [S/m]
x1 = 0.05 | 0.587
x1 = 0.1 | 1.36
x1 = 0.2001 | 2.12
x1 = 0.2999 | 2.14
x1 = 0.4 | 1.93
x1 = 0.5002 | 1.68
x1 = 0.5998 | 1.42
x1 = 0.7 | 1.23
x1 = 0.8 | 1.08
x1 = 0.8999 | 0.965
x1 = 1 | 0.877

CCCC[n+]1ccn(C)c1.O=S(=O)([N-]S(=O)(=O)C(F)(F)F)C(F)(F)F + CC1COC(=O)O1
Settings | electrical conductivity [S/m]
x1 = 1 | 0.877

From the NIST ThermoML archive (doi:10.1021/acs.jced.7b00646)
